# According to ChEMBL document CHEMBL1201862, “PubChem BioAssay data set” (2004):
#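 Compound exposure: 48 hours, 5 concentrations, 96-well plates. The concentration for 50% growth inhibition is given as GI50.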 Activity calls are given as the source filed them. Cut-off read from the data, not from the text of the source: active = GI50 up to about 1.1 µM and inactive = higher.
# Assays:
# Test in all cases: NCI-60 cell line screen, 48 h
# CCRF-CEM = test system: CCRF-CEM
# SK-OV-3 = test system: SK-OV-3
# SK-MEL-28 = test system: SK-MEL-28
# NCI/ADR-RES = test system: NCI/ADR-RES
# HOP-62 = test system: HOP-62
# HT-29 = test system: HT-29
# M14 = test system: M14
# SN12C = test system: SN12C
# HCT-15 = test system: HCT-15
# SF-268 = test system: SF-268
# OVCAR-8 = test system: OVCAR-8
# MDA-N = test system: MDA-N
# K562 = test system: K562
# OVCAR-3 = test system: OVCAR-3
# SF-539 = test system: SF-539
# HOP-92 = test system: HOP-92
# RXF 393 = test system: RXF 393
# NCI-H460 = test system: NCI-H460
# T47D = test system: T47D
Structure (SMILES),GI50 (CCRF-CEM),GI50 (SK-OV-3),GI50 (SK-MEL-28),GI50 (NCI/ADR-RES),GI50 (HOP-62),GI50 (HT-29),GI50 (M14),GI50 (SN12C),GI50 (HCT-15) [µM],GI50 (SF-268),GI50 (OVCAR-8),GI50 (MDA-N),GI50 (K562),GI50 (OVCAR-3),GI50 (SF-539),GI50 (HOP-92),GI50 (RXF 393),GI50 (NCI-H460),GI50 (T47D)
CC(C)CC1[C@@H](OCc2ccccc2)COS(=O)N1Cc1ccccc1 (stereo not given in full),57.1 µM (inactive),> 100 µM (inactive),51.3 µM (inactive),49.4 µM (inactive),56.6 µM (inactive),15.6 µM (inactive),51.4 µM (inactive),57.8 µM (inactive),30.8,32.6 µM (inactive),39 µM (inactive),52.8 µM (inactive),39.4 µM (inactive),54.2 µM (inactive),,,,,
COC1=CC(=O)C2C(C1=O)[C@@H]1c3ccccc3OC(C)(C)[C@H]21 (stereo not given in full),23.1 µM (inactive),90.4 µM (inactive),17.4 µM (inactive),,> 100 µM (inactive),28.1 µM (inactive),18.7 µM (inactive),,19.9,29.6 µM (inactive),21.7 µM (inactive),,19 µM (inactive),15.1 µM (inactive),23.5 µM (inactive),20.5 µM (inactive),14.1 µM (inactive),60.5 µM (inactive),
CC1CN=C(N(C)C(=O)Nc2ccc(Cl)c(Cl)c2)S1 (stereo not given),33.3 µM (inactive),> 100 µM (inactive),16.6 µM (inactive),14.4 µM (inactive),21.8 µM (inactive),33 µM (inactive),0.127 µM (active),26.5 µM (inactive),21.3,27.9 µM (inactive),27.2 µM (inactive),31 µM (inactive),23.4 µM (inactive),20.5 µM (inactive),17.7 µM (inactive),4.76 µM (inactive),,36 µM (inactive),19.3 µM (inactive)
O=C(CC1C(=O)Nc2ccccc2S1(=O)=O)Nc1cccc(Cl)c1 (stereo not given),22.3 µM (inactive),,20.1 µM (inactive),,,17.5 µM (inactive),18.8 µM (inactive),15.7 µM (inactive),15.5,16.2 µM (inactive),17.8 µM (inactive),,17.8 µM (inactive),15.6 µM (inactive),10.7 µM (inactive),16.1 µM (inactive),16.3 µM (inactive),16.7 µM (inactive),
NC(CCc1ncc(-c2ccccc2)s1)C(=O)O (stereo not given),> 100 µM (inactive),> 100 µM (inactive),> 100 µM (inactive),,,> 100 µM (inactive),> 100 µM (inactive),> 100 µM (inactive),> 100,,> 100 µM (inactive),,> 100 µM (inactive),> 100 µM (inactive),> 100 µM (inactive),> 100 µM (inactive),> 100 µM (inactive),> 100 µM (inactive),
CCOC(=O)C1=C(O)C(=O)c2cc(C)ccc2C1=O,> 100 µM (inactive),> 100 µM (inactive),> 100 µM (inactive),,63.4 µM (inactive),> 100 µM (inactive),54.8 µM (inactive),> 100 µM (inactive),77.8,> 100 µM (inactive),> 100 µM (inactive),,> 100 µM (inactive),93.3 µM (inactive),> 100 µM (inactive),> 100 µM (inactive),> 100 µM (inactive),> 100 µM (inactive),
CCOC(=O)C(=O)/C(=C/NC(=S)Nc1ccc(Cl)c(Cl)c1)C(=O)OCC,53.3 µM (inactive),> 100 µM (inactive),> 100 µM (inactive),50.1 µM (inactive),> 100 µM (inactive),56.9 µM (inactive),75.3 µM (inactive),88.3 µM (inactive),> 100,> 100 µM (inactive),> 100 µM (inactive),61.2 µM (inactive),,72.9 µM (inactive),25.6 µM (inactive),55.8 µM (inactive),37.8 µM (inactive),> 100 µM (inactive),
Cc1c(N2CCOCC2)nc2ccc(Cl)cc2c1-c1ccccc1,26.7 µM (inactive),> 100 µM (inactive),> 100 µM (inactive),,> 100 µM (inactive),57.1 µM (inactive),> 100 µM (inactive),47.8 µM (inactive),42.6,80.2 µM (inactive),> 100 µM (inactive),,31.6 µM (inactive),64.7 µM (inactive),61.9 µM (inactive),42.7 µM (inactive),62.2 µM (inactive),58.3 µM (inactive),
CCOP(=O)(OCC)/C(C#N)=C\c1ccc(OC(C)=O)cc1,> 100 µM (inactive),> 100 µM (inactive),> 100 µM (inactive),,> 100 µM (inactive),> 100 µM (inactive),> 100 µM (inactive),> 100 µM (inactive),> 100,> 66.2 µM (inactive),> 100 µM (inactive),,> 100 µM (inactive),> 100 µM (inactive),> 100 µM (inactive),> 100 µM (inactive),> 100 µM (inactive),> 100 µM (inactive),
COC(=O)/C(C#N)=C(\N)C(Cl)(Cl)Cl,0.338 µM (active),1.81 µM (inactive),2 µM (inactive),,16.1 µM (inactive),,1.43 µM (inactive),2.87 µM (inactive),2.2,3.92 µM (inactive),2.15 µM (inactive),,0.442 µM (active),3.3 µM (inactive),,2.99 µM (inactive),1.61 µM (inactive),4.33 µM (inactive),
O=C(CSCC(=O)N/N=C\c1ccc(F)cc1F)N/N=C\c1ccc(F)cc1F,> 100 µM (inactive),> 100 µM (inactive),> 100 µM (inactive),> 100 µM (inactive),> 100 µM (inactive),> 100 µM (inactive),> 100 µM (inactive),> 100 µM (inactive),> 100,> 100 µM (inactive),> 100 µM (inactive),,,> 100 µM (inactive),> 100 µM (inactive),> 100 µM (inactive),> 100 µM (inactive),> 100 µM (inactive),> 100 µM (inactive)
O=C1C2=Cc3ccccc3CCN2c2ccc([N+](=O)[O-])cc21,53.3 µM (inactive),,> 100 µM (inactive),24 µM (inactive),> 100 µM (inactive),> 100 µM (inactive),> 100 µM (inactive),81.5 µM (inactive),58.3,91.4 µM (inactive),35.4 µM (inactive),> 100 µM (inactive),> 100 µM (inactive),44.2 µM (inactive),82.6 µM (inactive),41.2 µM (inactive),> 100 µM (inactive),30.7 µM (inactive),
O=C1CC2(C[C@@H]3CCCCCCCCC[C@@H](C3)C2)N1 (stereo not given in full),17.5 µM (inactive),15.1 µM (inactive),17.2 µM (inactive),,17.1 µM (inactive),12.8 µM (inactive),14.8 µM (inactive),16.8 µM (inactive),17.7,20.4 µM (inactive),17.5 µM (inactive),,20.8 µM (inactive),,15.8 µM (inactive),10.8 µM (inactive),16.2 µM (inactive),16.6 µM (inactive),
NC(CCSC(F)F)C(=O)O (stereo not given),> 100 µM (inactive),> 100 µM (inactive),> 100 µM (inactive),,> 100 µM (inactive),> 100 µM (inactive),> 100 µM (inactive),> 100 µM (inactive),,> 100 µM (inactive),> 100 µM (inactive),,> 100 µM (inactive),> 100 µM (inactive),> 100 µM (inactive),> 100 µM (inactive),> 100 µM (inactive),> 100 µM (inactive),
CCOc1ccc(/C=C/C(=O)c2sc(NNC(C)=O)nc2C)cc1,> 100 µM (inactive),> 100 µM (inactive),> 100 µM (inactive),,> 100 µM (inactive),> 100 µM (inactive),,> 100 µM (inactive),> 100,> 100 µM (inactive),> 100 µM (inactive),,> 100 µM (inactive),> 100 µM (inactive),> 100 µM (inactive),> 100 µM (inactive),> 100 µM (inactive),> 100 µM (inactive),
COc1nc2nccc-2c2occn12,,> 100 µM (inactive),> 100 µM (inactive),,> 100 µM (inactive),> 100 µM (inactive),> 100 µM (inactive),> 100 µM (inactive),> 100,> 100 µM (inactive),> 100 µM (inactive),,> 100 µM (inactive),> 100 µM (inactive),> 100 µM (inactive),> 100 µM (inactive),> 100 µM (inactive),> 100 µM (inactive),
CCOC(=O)N[C@@H]1C(CC(=O)OC)O[C@H]2OC(C)(C)O[C@H]21 (stereo not given in full),> 100 µM (inactive),> 100 µM (inactive),> 100 µM (inactive),,> 100 µM (inactive),> 100 µM (inactive),> 100 µM (inactive),> 100 µM (inactive),> 100,> 100 µM (inactive),,,> 100 µM (inactive),> 100 µM (inactive),> 100 µM (inactive),> 100 µM (inactive),> 100 µM (inactive),> 100 µM (inactive),
Oc1cnc2c(O)cccc2c1 [JINEOL],,32.6 µM (inactive),76.6 µM (inactive),18.2 µM (inactive),26.7 µM (inactive),32.7 µM (inactive),24.5 µM (inactive),37.5 µM (inactive),33.5,33.2 µM (inactive),26.2 µM (inactive),57.1 µM (inactive),51.3 µM (inactive),20.6 µM (inactive),30.3 µM (inactive),41 µM (inactive),,31.9 µM (inactive),29 µM (inactive)
